Data taken from PubChem BioAssay (NCI).
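Step 1: Grow cells in 96-well plates. Step 2: Expose to compound for 48 hours at 5 concentrations. Step 3: Interpolate endpoints linearly; if unreached, use highest concentration. TGI marks complete inhibition of growth.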

What was measured:
Test in all cases: NCI tumour cell line growth inhibition, 48 h
[1] = test system: OVCAR-5 ovarian
[2] = test system: CAKI-1 renal
[3] = test system: RPMI-8226 leukemia
[4] = test system: SF-268 CNS
[5] = test system: KM20L2 colon
[6] = test system: SW-620 colon
[7] = test system: UO-31 renal
[8] = test system: COLO 205 colon
[9] = test system: SK-MEL-28 melanoma
[10] = test system: K-562 leukemia
[11] = test system: SF-539 CNS
[12] = test system: SNB-78 CNS
[13] = test system: NCI-H460 lung
[14] = test system: HOP-62 NSCLC
[15] = test system: SK-MEL-5 melanoma
[16] = test system: XF 498 CNS
[17] = test system: U251 CNS
[18] = test system: P388/ADR leukemia
[19] = test system: HOP-92 NSCLC
[20] = test system: DMS 114 small cell lung
[21] = test system: MOLT-4 leukemia
[22] = test system: HCT-116 colon
[23] = test system: RXF 393 renal
[24] = test system: HT29 colon
[25] = test system: EKVX NSCLC
[26] = test system: HOP-18 NSCLC
[27] = test system: SNB-75 CNS
[28] = test system: SN12K1 renal
[29] = test system: NCI-H522 lung
[30] = test system: KM12 colon
[31] = test system: SN12C renal
[32] = test system: OVCAR-3 ovarian
[33] = test system: SF-295 CNS
[34] = test system: HCC-2998 colon
[35] = test system: DLD-1 colon
[36] = test system: HCT-15 colon
[37] = test system: CCRF-CEM leukemia
[38] = test system: P388 leukemia
[39] = test system: NCI/ADR-RES ovarian
[40] = test system: SK-OV-3 ovarian
[41] = test system: MALME-3M melanoma
[42] = test system: MCF7 breast
[43] = test system: SK-MEL-2 melanoma
[44] = test system: DMS 273 small cell lung
[45] = test system: NCI-H23 lung
[46] = test system: OVCAR-8 ovarian
[47] = test system: A498 renal
[48] = test system: NCI-H226 lung
[49] = test system: SNB-19 CNS
[50] = test system: UACC-62 melanoma
[51] = test system: IGROV1 ovarian
[52] = test system: HL-60(TB) leukemia
[53] = test system: OVCAR-4 ovarian
[54] = test system: A549 NSCLC
[55] = test system: LOX IMVI melanoma
[56] = test system: UACC-257 melanoma
[57] = test system: M19-MEL melanoma
[58] = test system: M14 melanoma
[59] = test system: TK-10 renal
[60] = test system: SR leukemia
[61] = test system: ACHN renal
[62] = test system: LXFL 529 NSCLC
[63] = test system: RXF-631 renal
[64] = test system: 786-0 renal

SMILES: Cc1ccccc1-c1nc2c(C(=O)NCCN(C)C)cccc2[nH]1
- TGI [1]: > 100 µM
- TGI [2]: > 100 µM
- TGI [3]: 73.4 µM
- TGI [4]: > 100 µM
- TGI [5]: > 100 µM
- TGI [6]: > 100 µM
- TGI [7]: 68.7 µM
- TGI [8]: 51.9 µM
- TGI [9]: > 100 µM
- TGI [10]: > 61.1 µM
- TGI [11]: > 100 µM
- TGI [12]: > 100 µM
- TGI [13]: > 100 µM
- TGI [14]: > 87.3 µM
- TGI [15]: 53.7 µM
- TGI [16]: > 100 µM
- TGI [17]: > 100 µM
- TGI [18]: > 100 µM
- TGI [19]: 85.1 µM
- TGI [20]: > 100 µM
- TGI [21]: 75.6 µM
- TGI [22]: > 100 µM
- TGI [23]: > 100 µM
- TGI [24]: > 100 µM
- TGI [25]: > 100 µM
- TGI [26]: 54.8 µM
- TGI [27]: > 100 µM
- TGI [28]: > 100 µM
- TGI [29]: > 100 µM
- TGI [30]: > 100 µM
- TGI [31]: > 100 µM
- TGI [32]: > 100 µM
- TGI [33]: > 100 µM
- TGI [34]: > 100 µM
- TGI [35]: > 100 µM
- TGI [36]: > 100 µM
- TGI [37]: > 100 µM
- TGI [38]: 44.3 µM
- TGI [39]: > 100 µM
- TGI [40]: > 100 µM
- TGI [41]: > 62.2 µM
- TGI [42]: > 100 µM
- TGI [43]: > 100 µM
- TGI [44]: > 100 µM
- TGI [45]: > 100 µM
- TGI [46]: > 100 µM
- TGI [47]: > 100 µM
- TGI [48]: 48 µM
- TGI [49]: > 100 µM
- TGI [50]: > 100 µM
- TGI [51]: > 100 µM
- TGI [52]: > 74.6 µM
- TGI [53]: > 100 µM
- TGI [54]: > 100 µM
- TGI [55]: > 100 µM
- TGI [56]: > 100 µM

SMILES: Cc1cc(=O)[nH]c(NN2C(Cl)C(=O)C2c2ccc([N+](=O)[O-])cc2)n1 (configuration not stated)
- TGI [1]: 52.8 µM
- TGI [3]: 30.9 µM
- TGI [4]: 41 µM
- TGI [5]: 56.7 µM
- TGI [6]: 79.7 µM
- TGI [7]: 43.1 µM
- TGI [8]: 35.9 µM
- TGI [9]: 27.1 µM
- TGI [10]: 15 µM
- TGI [11]: 27 µM
- TGI [12]: 25 µM
- TGI [13]: 18.8 µM
- TGI [14]: 23 µM
- TGI [15]: 27.3 µM
- TGI [17]: 36.7 µM
- TGI [19]: 27.3 µM
- TGI [20]: 28.7 µM
- TGI [21]: 43.2 µM
- TGI [57]: 17.3 µM
- TGI [22]: 22.3 µM
- TGI [23]: 14.1 µM
- TGI [24]: 43.8 µM
- TGI [25]: 78.8 µM
- TGI [26]: 23.9 µM
- TGI [27]: 9.11 µM
- TGI [58]: 23 µM
- TGI [31]: 24.5 µM
- TGI [32]: 20.6 µM
- TGI [34]: 31.1 µM
- TGI [59]: 29.7 µM
- TGI [36]: 22.5 µM
- TGI [37]: 6.6 µM
- TGI [43]: 19.6 µM
- TGI [44]: 22.7 µM
- TGI [45]: 26.1 µM
- TGI [46]: 82.5 µM
- TGI [60]: 34.5 µM
- TGI [49]: > 100 µM
- TGI [61]: 33.7 µM
- TGI [50]: 11.5 µM
- TGI [51]: 16.1 µM
- TGI [52]: 24.9 µM
- TGI [53]: 28.8 µM
- TGI [54]: > 100 µM
- TGI [55]: 19.2 µM
- TGI [62]: 20.8 µM
- TGI [56]: 37.6 µM

SMILES: CCOC(=O)CCn1ncc(Cl)c(Cl)c1=O
- TGI [1]: 32.1 µM
- TGI [2]: 10.8 µM
- TGI [3]: 15.3 µM
- TGI [4]: 21.6 µM
- TGI [5]: 31.4 µM
- TGI [6]: 9.7 µM
- TGI [7]: 29.3 µM
- TGI [8]: 25.6 µM
- TGI [9]: 6.58 µM
- TGI [10]: 8.52 µM
- TGI [11]: 27.3 µM
- TGI [12]: 22.1 µM
- TGI [13]: 30.3 µM
- TGI [14]: 39.8 µM
- TGI [15]: 25.3 µM
- TGI [16]: 37.9 µM
- TGI [17]: 17.1 µM
- TGI [19]: 26.2 µM
- TGI [20]: 4.3 µM
- TGI [21]: 11.7 µM
- TGI [57]: 8.35 µM
- TGI [22]: 24.2 µM
- TGI [23]: 29 µM
- TGI [24]: 14.2 µM
- TGI [63]: 7.92 µM
- TGI [25]: 36 µM
- TGI [26]: 11.7 µM
- TGI [27]: 29.6 µM
- TGI [58]: 14.5 µM
- TGI [29]: 0.834 µM
- TGI [30]: 20 µM
- TGI [31]: 29.3 µM
- TGI [32]: 10.8 µM
- TGI [33]: 34.2 µM
- TGI [34]: 10.4 µM
- TGI [35]: 21.5 µM
- TGI [59]: 34.5 µM
- TGI [36]: 4.69 µM
- TGI [37]: 9.76 µM
- TGI [40]: 42.5 µM
- TGI [41]: 34.4 µM
- TGI [43]: 26.4 µM
- TGI [44]: 27 µM
- TGI [45]: 4.66 µM
- TGI [46]: 11.9 µM
- TGI [47]: 39.6 µM
- TGI [60]: 7.28 µM
- TGI [48]: 25.3 µM
- TGI [49]: 26.7 µM
- TGI [61]: 33.7 µM
- TGI [50]: 19.2 µM
- TGI [64]: 34.7 µM
- TGI [51]: 26 µM
- TGI [52]: 6.49 µM
- TGI [53]: 2.9 µM
- TGI [54]: 32.9 µM
- TGI [55]: 25.7 µM
- TGI [62]: 10.5 µM
- TGI [56]: 26.5 µM
